From patent US9717727B2, “Methods of treating and preventing leukemia and other cancers of the blood and bone” (The Trustees of Columbia University in the City of New York, priority 2011, dated 2017)

What was measured:
[1] = tested on: EL4-GFP-Luc lymphoma/lymphoblastic cells; test: EL4-GFP-Luc lymphoblastic leukemia mouse model, long-term oral LP-533401 treatment (Example 9); type: in vivo, mice
Method: 8- to 10-week-old immunocompetent male mice were inoculated with tumor cells by tail vein injection. The EL4 cell line was established from a lymphoma-induced tumor in a C57BL mouse by 9,10-dimethyl-1,2-benzanthacene. An EL4 cell line transduced with green fluorescence protein and luciferase, EL4-GFP-Luc, was injected via the lateral tail vein of the B6(Cg)-Tyrc-2J mice (500,000 cells per mouse). The EL4-GFP-Luc fusion gene was used to allow cell trafficking and tumor progression to be assessed by an in vivo imaging system.
Leukemia engraftment and progression was monitored using the Xenogen IVIS-200 System (IVIS® imaging system, Xenogen Corporation), an in vivo imaging technology platform that allows non-invasive visualization, and tracking of cellular and genetic activity within a living organism. The system consists of a CCD camera mounted on a light-tight specimen chamber, a camera controller, a cryogenic cooler, a fluorescence light source and a computer system for data acquisition and analysis. The system is capable of imaging bioilluminescence and fluorescence in living animals.
In this study, since luminescence was being detected, luciferin as a substrate of luciferase was administered to the mice. The mice were monitored using the in vivo imaging system twice per week. Mice were anaesthetized using isoflurane, and then were injected intraperitoneally with luciferin (0.15 mg per g body weight) 10 minutes before the detection point. Mice were imaged using the in vivo system, setting the exposure time to 1 minute. Bioilluminescence intensity was recorded and counted.
Blood was collected by cardiac puncture in EDTA (CBCs and blood smears) or non-EDTA (serum) coated tubes. For serum preparation, blood was kept at room temperature for 15 minutes and centrifuged at 15,700 g for 10 min at 4° C. Serum osteocalcin was measured using the Osteocalcin IRMA kit (Immutopics).
Time-to-event analysis was used to assess two endpoints of interest, death and paralysis. The day which mice were inoculated with tumor cells was considered Day 1. Animals were followed up to 62 days. […] Kaplan-Meier curves were generated to illustrate time to death and paralysis, stratified by group status. Statistical significance of the between-group difference in the median time-to-endpoint was assessed by the log-rank test. Statistical analyses were performed using the EXCEL-XLSTAT and SAS softwares0. A P value less than 0.05 was considered statistically significant.
Mice injected with the EL-4 cell line, EL4-GFP-Luc, were used as described in Example 2. The imaging system describe in Example 2 was used.
Mice were treated orally with LP-533401 (25 or 200 mg per kg of body weight per day) or vehicle. Treatments started 15 days before malignant cell injections in all sets of experiments, and continued for the indicated periods of time. LP-533401 was dissolved in polyethylene glycol (PEG) and 5% dextrose or 2.5% glucose (Sigma), and given daily by oral gavage. Mice treated with vehicle were administered, in the same way as LP533401, a solution of PEG and 5% dextrose or 2.5% glucose, daily, by oral gavage.
The mice were divided into four groups of mice: • Mice with no leukemia treated with a vehicle, i.e., non-leukemic-vehicle-treated (“WT”); • Mice with no leukemia treated with LP533401, i.e., non-leukemic-LP-533401-treated (“NL-LP”); • Mice with leukemia treated with a vehicle, i.e., leukemic-vehicle-treated (“Leuk-veh”); and • Mice with leukemia treated with LP-533401, leukemic-LP533410-treated (“Leuk-LP”).
Treatment of the non-leukemic mice with the vehicle or LP-533401 lasted a total of 35 days and treatment of the leukemic animals with a vehicle or LP-533401 continued until the day mice were sacrificed, which occurred at different time points, depending upon the presence of signs of illness. […]

[2] = tested on: serum serotonin; test: Serum serotonin levels, WEHI/3B study (Example 12); type: in vivo; settings: non-leukemic mice treated with LP-533401 (NL-LP); BALB/cJ
Method: For measurements of serum serotonin levels, mice were briefly exposed to Isoflurane (Baxter) for 30 seconds and blood was collected by cardiac puncture. Similar volumes of blood were collected from different animals for consistency in the clotting times. Serum collection from all mice was done between 9:00 am and 12:00 pm. Blood was allowed to clot on ice for 5 minutes before centrifugation at maximum speed at 4° C. for 10 minutes. The serum supernatant was removed, snap frozen and stored at −80° C. for further analysis. Serum serotonin levels were quantified by ELISA (Serotonin kit, Fitzgerald) according to manufacturer's instructions. […]
All mice were sacrificed after 2 weeks for the following assessments: • Serum serotonin levels as measured in Example 9; • Body weight as described in Example 2 • Spleen weight as described in Example 2; • Histological analysis of the femur, spleen and liver as described in Example 2; • Trabecular Bone Volume (Bv/TV) as described in Example 3; • and • Gene Expression analysis by PCR as described in Example 3. […]

[3] = target: T1, Tph2 (Homo sapiens, UniProt Q8IWU9); settings: in vitro; cited from earlier work
T1 sequence (Q8IWU9 1-490): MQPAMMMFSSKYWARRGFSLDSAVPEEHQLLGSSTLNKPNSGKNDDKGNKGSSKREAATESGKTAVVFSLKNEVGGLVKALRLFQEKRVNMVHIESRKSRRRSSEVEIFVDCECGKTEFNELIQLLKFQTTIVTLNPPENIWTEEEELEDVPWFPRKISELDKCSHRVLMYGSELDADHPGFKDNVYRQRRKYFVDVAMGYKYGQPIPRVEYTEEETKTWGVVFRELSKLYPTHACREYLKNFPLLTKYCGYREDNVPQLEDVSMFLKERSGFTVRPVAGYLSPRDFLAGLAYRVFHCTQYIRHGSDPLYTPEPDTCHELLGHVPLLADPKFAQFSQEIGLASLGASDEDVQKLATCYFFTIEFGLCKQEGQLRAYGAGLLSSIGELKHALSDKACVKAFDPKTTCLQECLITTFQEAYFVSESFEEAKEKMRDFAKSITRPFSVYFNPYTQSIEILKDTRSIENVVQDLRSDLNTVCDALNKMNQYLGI

[4] = tested on: bone loss; settings: in vivo; cited from earlier work
[5] = among ten leukemic mice treated
[6] = leukemic mice (EL4), peripheral blood

Nc1nc(OC(c2ccc(-c3cccc(F)c3)cc2)C(F)(F)F)cc(-c2ccc(C[C@H](N)C(=O)O)cc2)n1 (stereo partly shown) [LP-533401]
number of treated leukemic mice that cleared their leukemia [1, 5]: 2
number of treated leukemic mice that never developed leukemia [1, 5]: 2
number of treated leukemic mice that developed leukemia at a late stage and then recovered ([1]; among ten leukemic mice treated, day 28): 1
animals that developed hind-limb paralysis ([1]; leukemic mice (EL4)): 38%
reticulocyte numbers ([1]; leukemic mice (EL4)): prevented leukemia induced suppression of reticulocyte numbers
tumor burden by bioluminescence imaging / luciferase intensity ([1]; leukemic mice (EL4)): decreased tumor burden
anemia (red blood cells, hemoglobin, hematocrit) [1, 6]: ameliorated anemia
leukemia-associated increase in WBCs [1, 6]: diminished
neutrophils, monocytes and lymphocytes [1, 6]: restored to normal numbers
overall survival ([1]; mice with leukemia (EL4)): significantly longer overall survival
decrease in serum serotonin levels compared to wild-type mice [2]: 50%
inhibition of Tph2 relative to Tph1 [3]: inhibits Tph2 as effectively as Tph1
effect against bone loss [4]: effective against bone loss
